Assay results as given in patent publication US20130072519A1, “2-PHENYL BENZOYLAMIDES” (priority 2010, published 2013).
pIC50: −log10 of the molar value.

Key:
[1] = test system: Apolipoprotein B Secretion from HepG2 Cells; test: Inhibition of Apolipoprotein B secretion from HepG2 cells (ELISA); type: cell-based, human; conditions: 22-24 hours incubation, ApoB ELISA, Low/High IC50 columns give the 95% confidence interval
Protocol: Inhibition of Apolipoprotein B Secretion from HepG2 Cells
To assess the inhibitory effect of the compounds of the invention on ApoB production, an endogenously ApoB producing cell line, HEPG2, was implemented in an in vitro ELISA assay. HEPG2 cells are plated at 25,000 per well (96-well plates) in media consisting of DMEM Low Glucose, 1% NEAA (non-essential amino acids), 10% FBS (heat inactivated), 1% L-Glutamine, and 1% Antimycotic-Antibiotic and incubated for 16-18 hours at 37° C. and 5% CO2. After the 16-18 hour incubation, a 12 point half-log serial of the inhibitor (1000 nM-0.003 nM) is prepared, and 1.5 ul of the serial dilution is added to HEPG2 cells, which have had their media decanted and replaced with 148 ul of fresh media, and the cells are incubated for 22-24 hours at 37° C. and 5% CO2. Two and a half hours before the 22-24 hour incubation period is completed, Nunc Maxisorp plates are coated with 100 ul of primary (coating) antibody (goat anti-apoB), diluting to a ratio of 1:1000 in 1% Carbonate-Bicarbonate Coating Buffer and incubated for at least 2 hours at room temperature before the primary antibody is decanted and the wells of the microplate are washed with 200 ul of washing buffer (1% PBS, 0.05% Tween20). Next, 200 ul of blocking buffer (1% PBS, 1:500 Western Block, 5 mg/ml BSA) is added to the wells of the microplate, and incubated for at least 30 mins. Following the 22-24 hours incubation period, cell plates are removed from the incubator, 20 ul of supernatant from each well is aspirated, added to a corresponding well in 96 well plate containing 140 ul of diluent (1:2-Blocking Buffer: Washing Buffer), and mixed. Then, 120 ul is aspirated from the dilutent-supernatant plate, added to the blocked Nunc Maxisorp 96 well plate, and placed at room temperature on a shaker to mix for at least 2 hours. The secondary (capture) antibody (mouse anti-human apoB) is prepared at a ratio of 1:4000, and the detection antibody (goat anti-mouse HRP conjugated antibody) at a ratio of 1:10,000. For each antibody, 100 ul is added to each well of the microplate and the microplate is incubated at room temperature for 2 hours, washing the microplates between each antibody addition. Colorimetric development is achieved by adding 50 ul of TMB reagent to each well, incubating for 5 mins at room temperature, then adding 50 ul of 2M Sulfuric Acid to each well. Absorbance at 450 nm is monitored in an Envision plate reader to measure the amount of ApoB formed.
Results reported as average IC50, low and high IC50 range (95% confidence interval).

[2] = Human liver microsomal stability; type: in vitro ADME; conditions: Human Liver Microsomes 0.76 mg/mL, 1 μM compound, 37° C.; for Compound remaining (%) at 4 min: pH 7.4, 4 min; for Compound remaining (%) at 30 min: pH 7.4, 30 min
Protocol: (§1) Pooled human liver or intestinal microsomes (final concentration 0.76 mg/mL) were diluted in 100 mM potassium phosphate buffer (pH 7.4) and preincubated at 37° C. The compounds of interest were dissolved in DMSO (30 mM), diluted to 100 μM in acetonitrile or methanol, and added to the microsomal incubations to achieve a final concentration of 1 μM with 1% or less final organic solvent. The mixtures were incubated for 30 min at 37° C. Aliquots were removed at predetermined times and quenched with an excess acetonitrile, containing an internal standard, on ice. Following centrifugation, the analytes were quantified by liquid chromatography-tandem mass spectrometry (LC-MS/MS). The compound remaining (%) was calculated from the analyte area ratio at the predetermined time/initial analyte area ratio at time 0×100.

[3] = Human intestinal microsomal stability; type: in vitro ADME; conditions: Human Intestinal Microsomes 0.76 mg/mL, 1 μM compound, 37° C.; for Compound remaining (%) at 4 min: pH 7.4, 4 min; for Compound remaining (%) at 30 min: pH 7.4, 30 min
Protocol: as §1

[4] = Homo sapiens, HepG2, HepG2 cells

CCOC(=O)C1(COC(=O)Cc2ccc(NC(=O)c3ccc(C)cc3-c3ccc(C(F)(F)F)cc3)c(C(=O)N(C)C)c2)c2ccccc2C(=O)N1C (single isomer, unassigned) [Example 56, ethyl 1-({2-[3-(dimethylcarbamoyl)-4-({[5-methyl-4′-(trifluoromethyl)biphenyl-2-yl]carbonyl}amino)phenyl]acetoxy}methyl)-2-methyl-3-oxoisoindoline-1-carboxylate]
pIC50 [1, 4]: 9.83 | Compound remaining (%) at 4 min [2]: 38% | Compound remaining (%) at 30 min [2]: 3% | Compound remaining (%) at 4 min [3]: 100% | Compound remaining (%) at 30 min [3]: 87%

CCOC(=O)C1(COC(=O)Cc2ccc(NC(=O)c3ccc(C)cc3-c3ccc(C(F)(F)F)cc3)c(C(=O)N(C)C)c2)CCc2cccnc21 (single isomer, unassigned) [Example 59, ethyl 7-({2-[3-(dimethylcarbamoyl)-4-({[5-methyl-4′-(trifluoromethyl)biphenyl-2-yl]carbonyl}amino)phenyl]acetoxy}methyl)-6,7-dihydro-5H-cyclopenta[b]pyridine-7-carboxylate]
pIC50 [1, 4]: 9.15 | Compound remaining (%) at 4 min [2]: 22% | Compound remaining (%) at 30 min [2]: 1.1% | Compound remaining (%) at 4 min [3]: 102%

CCOC(=O)C1(COC(=O)Cc2ccc(NC(=O)c3ccccc3-c3ccc(OC(C)C)cc3)c(C(=O)N(C)C)c2)CCc2cccnc21 (single isomer, unassigned) [Example 60, ethyl 7-({2-[3-(dimethylcarbamoyl)-4-({[4′-isopropoxybiphenyl-2-yl)carbonyl]amino}phenyl]acetoxy}methyl)-6,7-dihydro-5H-cyclopenta[b]pyridine-7-carboxylate]
pIC50 [1, 4]: 9.27 | Compound remaining (%) at 4 min [2]: 110% | Compound remaining (%) at 30 min [2]: 8.5% | Compound remaining (%) at 4 min [3]: 107% | Compound remaining (%) at 30 min [3]: 100%

CCOC(=O)C1(COC(=O)Cc2ccc(NC(=O)c3cccc(OC)c3-c3ccc(C(F)(F)F)cc3)c(C(=O)N(C)C)c2)CCc2cccnc21 (single isomer, unassigned) [Example 61, ethyl 7-({2-[3-(dimethylcarbamoyl)-4-({[6-methoxy-4′-(trifluoromethyl)biphenyl-2-yl]carbonyl}amino)phenyl]acetoxy}methyl)-6,7-dihydro-5H-cyclopenta[b]pyridine-7-carboxylate]
pIC50 [1, 4]: 9.40 | Compound remaining (%) at 4 min [2]: 65% | Compound remaining (%) at 30 min [2]: 4.7% | Compound remaining (%) at 4 min [3]: 106% | Compound remaining (%) at 30 min [3]: 106%

CCOC(=O)[C@]1(COC(=O)Cc2ccc(NC(=O)c3cccc(C)c3-c3ccc(C(F)(F)F)cc3)c(C(=O)N(C)C)c2)c2ccccc2C(=O)N1C [Example 49, Ethyl (1R)-1-({2-[3-(Dimethylcarbamoyl)-4-({[6-methyl-4′-(trifluoromethyl)biphenyl-2-yl]carbonyl}amino)phenyl]acetoxy}methyl)-2-methyl-3-oxoisoindoline-1-carboxylate]
pIC50 [1, 4]: 9.62 | Compound remaining (%) at 4 min [2]: 42% | Compound remaining (%) at 30 min [2]: 2.7% | Compound remaining (%) at 4 min [3]: 100% | Compound remaining (%) at 30 min [3]: 83%

CCOC(=O)[C@]1(COC(=O)Cc2ccc(NC(=O)c3ccccc3-c3ccc(OC(C)C)cc3)c(C(=O)N(C)C)c2)c2ccccc2C(=O)N1C [Example 50, Ethyl (1R)-1-({2-[3-(dimethylcarbamoyl)-4-{[(4′-isopropoxybiphenyl-2-yl)carbonyl]amino}phenyl]acetoxy}methyl)-2-methyl-3-oxoisoindoline-1-carboxylate]
pIC50 [1, 4]: 9.91 | Compound remaining (%) at 4 min [2]: 48% | Compound remaining (%) at 30 min [2]: 3.7% | Compound remaining (%) at 4 min [3]: 100% | Compound remaining (%) at 30 min [3]: 92%

CCOC(=O)[C@]1(COC(=O)Cc2ccc(NC(=O)c3ccc(OC)cc3-c3ccc(C(C)(C)C)cc3)c(C(=O)N(C)C)c2)c2ccccc2C(=O)N1C [Example 69, ethyl (1R)-1-({2-[4-{[(4′-tert-butyl-5-methoxybiphenyl-2-yl)carbonyl]amino}-3-(dimethylcarbamoyl)phenyl]acetoxy}methyl)-2-methyl-3-oxoisoindoline-1-carboxylate]
pIC50 [1, 4]: 9.74

CCOC(=O)[C@]1(COC(=O)Cc2ccc(NC(=O)c3ccc(OC)cc3-c3ccc(C(F)(F)F)cc3)c(C(=O)N(C)C)c2)c2ccccc2C(=O)N1C [Example 70, ethyl (1R)-1-({2-[3-(dimethylcarbamoyl)-4-({[5-methoxy-4′-(trifluoromethyl)biphenyl-2-yl]carbonyl}amino)phenyl]acetoxy}methyl)-2-methyl-3-oxoisoindoline-1-carboxylate]
pIC50 [1, 4]: 9.38 | Compound remaining (%) at 4 min [2]: 61% | Compound remaining (%) at 30 min [2]: 6.4% | Compound remaining (%) at 4 min [3]: 98% | Compound remaining (%) at 30 min [3]: 96%

CCOC(=O)[C@]1(COC(=O)Cc2ccc(NC(=O)c3cccc(OC)c3-c3ccc(C(F)(F)F)cc3)c(C(=O)N(C)C)c2)c2ccccc2C(=O)N1C [Example 71, ethyl (1R)-1-({2-[3-(dimethylcarbamoyl)-4-({[6-methoxy-4′-(trifluoromethyl)biphenyl-2-yl]carbonyl}amino)phenyl]acetoxy}methyl)-2-methyl-3-oxoisoindoline-1-carboxylate]
pIC50 [1, 4]: 9.75 | Compound remaining (%) at 4 min [2]: 45% | Compound remaining (%) at 30 min [2]: 5.3% | Compound remaining (%) at 4 min [3]: 125% | Compound remaining (%) at 30 min [3]: 94%

CCOC(=O)[C@]1(COC(=O)Cc2ccc(NC(=O)c3ccccc3-c3ccc(C(C)C)cc3)c(C(=O)N(C)C)c2)c2ccccc2C(=O)N1C [Example 73, ethyl (1R)-1-({2-[3-(dimethylcarbamoyl)-4-{[(4′-isopropylbiphenyl-2-yl)carbonyl]amino}phenyl]acetoxy}methyl)-2-methyl-3-oxoisoindoline-1-carboxylate]
pIC50 [1, 4]: 9.79

CCOC(=O)[C@]1(COC(=O)Cc2ccc(NC(=O)c3ccccc3-c3ccccc3)c(C(=O)N(C)C)c2)c2ccccc2C(=O)N1C [Example 74, ethyl (1R)-1-[(2-{4-[(biphenyl-2-ylcarbonyl)amino]-3-(dimethylcarbamoyl)phenyl}acetoxy)methyl]-2-methyl-3-oxoisoindoline-1-carboxylate]
pIC50 [1, 4]: 8.89

CCOC(=O)[C@]1(COC(=O)Cc2ccc(NC(=O)c3ccccc3-c3ccccc3OC)c(C(=O)N(C)C)c2)c2ccccc2C(=O)N1C [Example 75, ethyl (1R)-1-({2-[3-(dimethylcarbamoyl)-4-{[(2′-methoxybiphenyl-2-yl)carbonyl]amino}phenyl]acetoxy}methyl)-2-methyl-3-oxoisoindoline-1-carboxylate]
pIC50 [1, 4]: 8.38

CCOC(=O)[C@]1(COC(=O)Cc2ccc(NC(=O)c3ccccc3-c3ccc(OC(C)C)cc3)c(C(=O)N(C)C)c2)c2ccccc2C(=O)N1C [Example 77, Ethyl (1R)-1-({2-[3-(dimethylcarbamoyl)-4-{[(4′-isopropoxybiphenyl-2-yl)carbonyl]amino}phenyl]acetoxy}methyl)-2-methyl-3-oxoisoindoline-1-carboxylate]
pIC50 ([1]; HepG2 cells): 9.92
